The values below come from article PMC6511888, “Synthesis, Biological Evaluation, and Molecular Modeling Studies of New Thiadiazole Derivatives as Potent P2X7 Receptor Inhibitors” (Frontiers in Chemistry, 2019).

One data set deals with T1, P2Y12R (Mus musculus, UniProt Q9CPV9).
T1 construct: endogenous in cells; host or cells: mouse peritoneal macrophages
Kind of data set: 2MeSADP-activated [Ca2+]i shifts in mouse peritoneal macrophages. Particulars: concentration not given. Format: cell-based.

A further data set deals with T2, human P2X7R (Homo sapiens, UniProt Q99572).
T2 construct: expressed in transfected cells; host or cells: HEK-293
T2 sequence (Q99572 1-595): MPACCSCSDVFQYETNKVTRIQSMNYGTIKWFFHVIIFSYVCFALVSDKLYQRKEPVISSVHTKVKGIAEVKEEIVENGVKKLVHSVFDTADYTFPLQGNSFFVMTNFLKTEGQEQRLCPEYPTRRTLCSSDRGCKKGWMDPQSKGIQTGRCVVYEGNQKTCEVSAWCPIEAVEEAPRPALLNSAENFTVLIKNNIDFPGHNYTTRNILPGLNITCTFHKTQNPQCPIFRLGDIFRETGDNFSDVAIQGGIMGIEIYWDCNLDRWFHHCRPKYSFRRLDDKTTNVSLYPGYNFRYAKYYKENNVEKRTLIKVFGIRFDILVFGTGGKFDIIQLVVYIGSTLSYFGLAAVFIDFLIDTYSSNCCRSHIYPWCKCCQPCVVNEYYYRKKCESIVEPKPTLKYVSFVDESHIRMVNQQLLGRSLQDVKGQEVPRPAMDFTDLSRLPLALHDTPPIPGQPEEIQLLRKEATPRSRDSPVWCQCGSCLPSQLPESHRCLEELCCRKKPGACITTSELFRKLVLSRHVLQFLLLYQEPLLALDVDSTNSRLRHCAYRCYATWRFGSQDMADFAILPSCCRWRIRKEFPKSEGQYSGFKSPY
Briefly: Dye uptake assay (ethidium bromide) in HEK-293 cells transfected with hP2X7R. Format: cell-based. Particulars: for IC50: ethidium uptake assay, HEK-293 cells transfected with human P2X7R, mean ± SD. Here is the method: HEK-293 cells expressing human P2X7R were maintained in Dulbecco's modified Eagle's medium (DMEM; Sigma-Aldrich) supplemented with 10% fetal bovine serum (FBS; Prolab, Br) and anti-biotics (50 U/ml penicillin and […] streptomycin) in a humidified 5% CO2 atmosphere at 37°C (Faria et al., [2018]). A total of 5 × 10^5 cells were plated at 37°C in a humidified 5% CO2 atmosphere for 24 h in a 96-well plate for dye uptake or IL-1β release assays.
HEK-293 cells transfected with hP2X7R and mouse peritoneal macrophages were plated at 2.5 × 10^6 or 5 × 10^5 cells/ml, respectively, in 96-well culture plates containing DMEM with 10% FBS and anti-biotics (50 U/ml penicillin and […] streptomycin) in a humidified 5% CO2 atmosphere at 37°C for 24 h (Faria et al., [2018]).
P2X7R antagonist and thiadiazole analogs (1 nM to 0.5 mM) were incubated for 5 min before ATP (5 mM) treatment for 20 min. In the last 5 min of ATP incubation, propidium iodide for macrophages (PI; 750 nM) or ethidium bromide (EB; 25 μM) for HEK-293 cells was added to all wells. PI dye was excited at a wavelength of 530 nm, and its fluorescence emission was read at a wavelength of 590 nm using an M5 plate reader (Molecular Devices). EB dye was excited at a wavelength of 530 nm and emitted at a wavelength of 620 nm.

The test system of data set [1] is P2X7R-mediated IL-1β release. Briefly: ATP-induced IL-1β release (ELISA) in differentiated THP-1 cells. In kind it is cell-based, human. For orientation: An ELISA detects its analyte on a solid surface through an enzyme-linked reagent.
Protocol: P2X7R-mediated IL-1β release was obtained from differentiated THP-1 cells stimulated with lipopolysaccharide (LPS) before ATP addition. […] THP-1 cells were differentiated with 500 ng/ml phorbol 12-myristate 13-acetate (PMA) and 10 ng/ml IFN-γ cotreatment for 24 h. These cells were activated with 25 ng/ml LPS for 4 h. […] P2X7R antagonists (BBG and A740003) and thiadiazole analogs were added 30 min before the ATP stimulus. The supernatants were collected, centrifuged (1,000 rpm for 5 min at 4°C), and stored at −70°C after LPS incubation. IL-1β was quantified using a standard kit (ABCAM, Cambridge).
Another data set is described as follows: Caco-2 cell permeability. In kind it is in vitro ADME. On the set-up: Papp at 60 min: dose or concentration left out as unconfirmed. Particulars: human, Caco-2, pH 7.4; apical to basolateral (A - B); mean ± standard error of three experiments; read-out: Caco-2 apparent permeability (Papp). The protocol: Corning® Costar® Transwell plates (Sigma-Aldrich, St. Louis, MO, USA) were used for seeding Caco-2 cells at 3 × 10^5 cells/well bathed with DMEM supplemented with 10% FSB according to Faria and collaborator in 2018 (Faria et al., [2018]). This culture was maintained for up to 21 days in a humidified incubator at 37°C and 5% CO2. Thiadiazole analog, vinblastine (poor permeability control), and propranolol (high permeability control) stock solutions, all at a concentration of 100 mM, were prepared in Hanks' balanced salt solution (HBSS) containing 25 mM HEPES at pH 7.4 with 0.5% (v/v) DMSO. Transport buffer (0.3 ml) was added to each well to equilibrate the cells with the transport buffer. A 24-well enhanced recovery plate containing 1 ml of transport buffer (pH 7.4) was substituted for the feeder tray. The transport buffer in the apical wells was removed, and 0.3 ml of a solution containing thiadiazoles 9b, 9c, 9f, or 11c; vinblastine; or propranolol was added. Then, the cells were replaced for incubation for 60 min. Lucifer yellow concentrations in the donor and acceptor wells were measured in the last of this incubation. Lucifer yellow was measured using an M5 plate reader ([…]) at an excitation wavelength of 485 nm and an emission wavelength of 530 nm.
Background: Passage across Caco-2 layers is used to estimate intestinal permeability.

Data set [2] can be described thus: Stability in mouse liver microsomes. The note with it: male, pH 7.4, read-out: LM stability mouse (CLint). Format: in vitro ADME. Here is the method:
Thiadiazole 9f stability was evaluated in liver microsomes from male mice and humans according to Faria et al. in 2018 (Faria et al., [2018]). Both solutions contained a final protein concentration of 0.5 mg/ml (0.1 M phosphate buffer) at pH 7.4. Microsomes were preincubated with 9f (1 μM) and DMSO ([…]) at 37°C before NADPH (1 mM) addition. A control for the reaction was a buffer containing 0.1 M phosphate at pH 7.4 in a final volume of 50 μl. Diazepam and verapamil were used as positive controls for mice and humans, respectively. Both types of microsomes were treated with 9f for 0, 5, 15, 30, and 45 min and the negative control [minus Nicotinamide adenine dinucleotide phosphate (NADPH)] for 45 min. To stop the reactions, methanol (50 μl) was added at the appropriate time points, and the samples were centrifuged (1,640 × g) for 20 min at 4°C to […] protein precipitation.
In vitro intrinsic clearance (CLint mic) for the metabolism of 9f in mouse and human liver microsomes was calculated using the equations below:
Half-life (t1/2) (minutes) = 0.693/k (1)
V(μL/mg) = volume of the incubation solution (μl)/protein in the incubation solution (mg) (2)
Intrinsic clearance (CLint) (μl/minutes/mg protein) = V × 0.693/t1/2 (3) according to the manufacturer's instructions.
On the technique in general: Liver microsomes are vesicles of endoplasmic reticulum, rich in cytochrome P450 enzymes.

The nature of data set [3]: pH-dependent kinetic solubility. Format: physicochemical. The note with it: kinetic from dmso stock. The protocol:
DMSO stock solutions (5 μl) were added into a 995-μl acetonitrile/buffer (1:1) mixture to prepare the calibration standard solutions. The reaction samples were centrifuged (10,000 rpm, 10 min, 25°C) and diluted 1:1 with acetonitrile (Faria et al., [2018]).

Where [4] appears, read: ATP-induced IL-1β release, LPS/IFN-differentiated human THP-1 cells, read-out: THP-1 cells IC50.
The mark [5] stands for this setting: dye uptake, HEK-293-transfected cells.
Setting [6] is: buffer, aqueous buffer, acidic pH values.
Setting [7] is: phosphate buffer, pH 7.4, aqueous buffer.

Each structure is given as a SMILES string. In brackets after ≈: the same amount, converted by molar mass. Read-outs that look alike come from different tables or passages of the source.

T1 sequence (Q9CPV9 whole entry): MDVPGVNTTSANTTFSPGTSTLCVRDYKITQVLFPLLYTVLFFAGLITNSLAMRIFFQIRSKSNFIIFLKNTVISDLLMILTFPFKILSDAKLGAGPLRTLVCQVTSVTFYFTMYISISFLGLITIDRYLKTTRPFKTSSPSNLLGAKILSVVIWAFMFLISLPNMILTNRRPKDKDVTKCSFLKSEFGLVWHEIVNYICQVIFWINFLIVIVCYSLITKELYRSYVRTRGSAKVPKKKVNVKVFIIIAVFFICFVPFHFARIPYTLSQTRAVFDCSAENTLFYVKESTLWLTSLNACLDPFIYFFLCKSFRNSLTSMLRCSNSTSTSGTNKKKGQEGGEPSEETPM
Protocol for P2Y12R: Mouse peritoneal macrophages, PC12 cells, J774 cells, and HEPG2 cells were analyzed by fluorescence microscopy to measure the intracellular Ca^2+ concentrations ([Ca^2+]i). Cells were incubated with 2 μM Fura-2-AM (Molecular Probes) for 30 min, and the [Ca^2+]i mobilization was measured in the F340/F380 ratios with a FlexStation 3 multimode microplate reader (Molecular Devices). Cells were plated in translucent 96-well plates (BD Falcon) for 15 min and then washed and incubated in a saline solution with 150 NaCl, 5 KCl, 1 MgCl2, 1 CaCl2, and 10 HEPES (pH 7.4) for 30 min before measurements of [Ca^2+]i. The Ca^2+ influx was induced by stimulating cells with P2 receptor agonists. P2 receptor antagonists were added 10 min before P2 receptor agonist addition. […] Ionomycin was considered a positive control, and the other recordings were normalized in relation to the AUC.

Turning to `COc1ccc(CC(=O)NC(NC(=NC#N)Nc2cccc3ncccc23)C(C)(C)C)cc1OC` (centres unmarked) [Compound A740003, N-(1-{[(cyanoimino)(5-quinolinylamino)methyl]amino}-2,2-dimethylpropyl)-2-(3,4-dimethoxyphenyl)acetamide], the “Effect on 2MeSADP-activated [Ca2+]i shifts” value on P2Y12R was “not inhibited”. In addition, the IC50 worked out at 97 ± 18 nM against human P2X7R and 223 ± 18 nM in data set [1] (setting [4]).
The compound `CCOC(=O)c1cnn(-c2nnc(-c3ccccc3Cl)s2)c1N` [Compound 9f] yielded a melting point of 190 to 191 °C. Also, the Papp at 60 min in the data set “Caco-2 cell permeability” is 73.4 ± 3.3 ×10⁻⁶ cm/s. Also, the “Effect on 2MeSADP-activated [Ca2+]i shifts” value at P2Y12R was “not inhibited”. For the same compound, in data set [2], the microsomal CLint at 1 μM was determined as 26.7 µL/min/mg. Further, at human P2X7R (setting [5]), the “Potency relative to A740003 (times greater)” value is recorded as “eight” and the “Potency relative to BBG (times greater)” value is given as “more than 50 times”. In addition, the concentration for half-maximal inhibition (IC50) at human P2X7R turned out to be 11 ± 1 nM. Moreover, the IC50 in data set [1] (setting [4]) came to 19 ± 3 nM. Besides, the half-maximal inhibitory concentration (IC50) in data set [1] (Homo sapiens, THP-1 cells, read-out: IC50, IL-1β release) lay within 20 to 300 nM. Further, in data set [1] (IL-1β release, THP-1 cells), the “Potency relative to A740003” value is > 10 times and the “Potency relative to BBG (times more potent)” value was “more than 20 times”. Also, in data set [3] (setting [6]), the concentration in solution (solubility at 2 h) was 300 µM (≈ 105 µg/mL). In addition, in data set [3] (buffer, pH 10, aqueous buffer), the solubility at 2 h is > 500 µM. In addition, the solubility at 2 h in data set [3] (setting [7]) was > 500 µM.
As for `N#Cc1cnn(-c2nnc(-c3ccccc3Cl)s2)c1N` [Compound 9b], the melting point was in the range of 250 to 251 °C. Also, the Papp at 60 min in “Caco-2 cell permeability” was found to be 50.1 ± 1.1 ×10⁻⁶ cm/s. The microsomal CLint at 1 μM in data set [2] is 14.3 µL/min/mg. For the same compound, on human P2X7R, the IC50 came out at 41 ± 8 nM. Further, the IC50 in data set [1] (setting [4]) worked out at 298 ± 8 nM. Further, in data set [1] (IL-1β release, THP-1 cells), the “Potency relative to BBG (times more potent)” value is listed as “approximately 10 times”. Also, in data set [3] (setting [6]), the solubility at 2 h stood at 300 µM (≈ 90.8 µg/mL). Besides, in data set [3] (buffer, pH 10, aqueous buffer), the solubility at 2 h was > 500 µM. Besides, in data set [3] (setting [7]), the solubility at 2 h was > 500 µM.
`Cc1cc(C)n(-c2nnc(-c3ccc(F)cc3)s2)n1` [Compound 11c, 2-(3,5-dimethyl-1H-pyrazol-1-yl)-5-(4-fluorophenyl)-1,3,4-thiadiazole] displayed a melting point of 174 °C. In the data set “Caco-2 cell permeability”, the Papp at 60 min came out at 77.9 ± 1 ×10⁻⁶ cm/s. In addition, in data set [2], the microsomal CLint at 1 μM was 38.5 µL/min/mg. On human P2X7R, this compound gave a half-inhibitory concentration (IC50) of 82 ± 5 nM. Further, the half-inhibitory concentration (IC50) in data set [1] (setting [4]) stood at 240 ± 17 nM. Further, the “Potency relative to BBG (times more potent)” value in data set [1] (IL-1β release, THP-1 cells) is “approximately 10 times”. The amount in solution in data set [3] (setting [6]) (solubility at 2 h) came to 300 µM (≈ 82.3 µg/mL). Moreover, the solubility at 2 h in data set [3] (buffer, pH 10, aqueous buffer) was > 500 µM. Also, in data set [3] (setting [7]), the solubility at 2 h is > 500 µM.
`N#Cc1cnn(-c2nnc(-c3ccc(F)cc3)s2)c1N` [Compound 9c] gave a melting point of 262 to 263 °C. Also, the Papp at 60 min in “Caco-2 cell permeability” stood at 56.1 ± 2.1 ×10⁻⁶ cm/s. Besides, in data set [2], the microsomal CLint at 1 μM stood at 11.6 µL/min/mg. The compound also displayed an IC50 against human P2X7R of 56 ± 2 nM. In data set [1] (setting [4]), the concentration for half-maximal inhibition (IC50) stood at 279 ± 35 nM. The “Potency relative to BBG (times more potent)” value in data set [1] (IL-1β release, THP-1 cells) is listed as “approximately 10 times”. Besides, the solubility at 2 h in data set [3] (setting [6]) came to 300 µM (≈ 85.9 µg/mL). Further, the solubility at 2 h in data set [3] (buffer, pH 10, aqueous buffer) was > 500 µM. Moreover, in data set [3] (setting [7]), the solubility at 2 h is > 500 µM.

What is called IC50 is the concentration needed to halve the response being measured. Broadly, the Papp is a coefficient for how fast a substance crosses the barrier. For orientation: melting point means the temperature, or range, at which the solid turns liquid. One may read the solubility as the dissolved amount per volume that the medium holds.
